In one experiment the test system is Aedes aegypti. The experiment is described as follows: Arm-in-cage repellent/deterrent bioassay on exposed human forearm (modified WHO protocol), Aedes aegypti. Type of experiment: in vivo. The note with it: for pest or weed control at 0.1 mg/cm2 / pest or weed control at 0.5 mg/cm2: Aedes aegypti, topical, (C-T)/C x 100 at time of failure, read-out: Percent repellence. The protocol: (§1) Candidate repellents and deterrents were bioassayed according to a modified protocol from the World Health Organization (1996). At least 1 hour prior to each bioassay, 75 host-seeking non blood-fed, nulliparous, 5- to 8-day-old female Aedes aegypti, Anopheles gambiae or Culex quinquefasciatus were placed into a wood-framed cage (26.5 cm on each side and 42.5 cm high) with a wooden floor, screened mesh sides and top, and a clear acrylic front fitted with a cotton stockinette sleeve (10 cm diameter). The test subject's arm was covered with an elbow-length polyethylene glove with an excised patch (16.6 cm long, 6 cm wide) to expose the ventral forearm of the test subject. Candidate deterrents were formulated in mineral (paraffin) oil and applied to the exposed forearm 5 min prior to inserting the arm into the cage. The inserted arm remained in the cage for 3 min every 30 min. Prior to each 3-min bioassay period, the hand of the untreated arm was inserted into the cage to ascertain that it received 10 bites within 30 sec as an indication of “biting pressure”.
(§2) The bioassay was terminated when the treated arm received ≧2 bites in one 3-min bioassay period or one bite in each of two consecutive bioassay periods. The time elapsed from experiment initiation to first bite was recorded as deterrent failure or complete protection time.
(§3) N,N-diethyl-m-toluamide formulated in ethanol at a corresponding dose served as a positive control, and mineral oil by itself served as a negative control. On each day, only one candidate compound was tested, ensuring that any residual material in the chamber had disappeared before the next bioassay.
To determine the repellence and deterrence of 8-allylsulfanyloctan-1-ol against Aedes aegypti, a 5%, 10% or 25% formulation of 8-allylsulfanyloctan-1-ol in mineral oil was applied in Experiments 1-3 at a dose of 1.5 mg (total composition) per cm^2 to the skin of the test person, and was bioassayed according to the protocol described under EXAMPLE 2. In Experiment 4, mineral oil by itself served as a negative control and was bioassayed at the same dose (1.5 mg per cm^2) as in Experiments 1-3. Each of Experiments 1-4 was replicated four times.
To compare the repellence and deterrence against Aedes aegypti caused by 8-allylsulfanyloctan-1-ol as a single active ingredient and by 8-allylsulfanyloctan-1-ol in combination with vanillin as a second active ingredient, we tested a 6.7% emulsion of vanillin (Experiment 14), a 6.7% emulsion of 8-allylsulfanyloctan-1-ol (Experiment 15), and a 13.4% emulsion of 8-allylsulfanyloctan-1-ol plus vanillin (1:1 ratio) (Experiment 16). 8-Allylsulfanyloctan-1-ol and vanillin were formulated in Emulsion No. 1 (see EXAMPLE 9). In each of Experiments […], test stimuli were applied at a dose of 1.5 mg per cm^2 to the skin of the test person, and were bioassayed according to the protocol described under EXAMPLE 2. In Experiment 17, Emulsion No. 1 served as a positive control and was tested at the same dose (1.5 mg per cm^2) as in Experiments 14-16.
To be able to compare the repellence and deterrence caused by N,N-diethyl-m-toluamide and by 8-allylsulfanyloctan-1-ol plus vanillin in Emulsion No. 1 (EXAMPLE 9), Experiment 26 tested a 6.7% formulation of N,N-diethyl-m-toluamide in ethanol (the best formulant for DEET) for protection from bites by Aedes egypti. In each replicate, a dose of 1.5 mg per […] was applied to the skin of the test person and bioassayed according to the protocol described under EXAMPLE 2.
To be able to further compare the deterrence caused by N,N-diethyl-m-toluamide with that caused by 8-allylsulfanyloctan-1-ol plus vanillin, Experiment 27 tested a 10.4% formulation of N,N-diethyl-m-toluamide in ethanol, and Experiment 28 tested 8-allylsulfanyloctan-1-ol (10.4%) plus vanillin (7.9%) in Emulsion No. 2 (EXAMPLE 10). […]

The test system of experiment [1] is male or female Aedes aegypti antennae. The experiment is described as follows: Coupled gas chromatographic-electroantennographic detection (GC-EAD) of garlic oil extract. The protocol: FIG. 1 illustrates flame ionization detector (FID) and electroantennograhic detector (EAD: male or female Aedes aegypti antennae) responses to aliquots of the low boiling temperature portion of garlic oil extract. Chromatography: Hewlett Packard (HP) gas chromatograph equipped with a fused silica column (30 m×0.32 mm ID) coated with DB-5; injector and detector temperature: 250° C.; temperature program: 50° C.
Aliquots of garlic oil extracts were then subjected to coupled gas chromatographic-electroantennographic detection (GC-EAD) analysis. Fourteen components (10 shown in FIG. 1) elicited responses from female or male mosquito antennae. Some of these components were isolated by high-performance liquid chromatography (HPLC) for identification by nuclear magnetic resonance spectroscopy (NMR). Other components were identified (compounds 11-14 in TABLE 2) by coupled GC-mass spectrometry and by retention index calculations. […] Four of the 10 components in FIG. 1 were tentatively identified by comparing their mass spectra and retention indices with those reported in the literature (Block et al. 1998).
(§4) Components with high molecular weight (>250 daltons) are advantageous in that they: 1) dissipate slowly from treated surfaces; 2) provide long-lasting protection against mosquitoes and 3) convey little, if any, offensive smell. The relative abundance of such components was enhanced by treating garlic oil under vacuum, thus stripping away lower-boiling components. In GC-EAD analyses of the high-boiling residue, four components elicited responses from mosquito antennae.

The next experiment concerns mosquitoes. The experiment is described as follows: General bioassay procedure with garlic oil, its components and fractions (mosquito species not given). The experiment is classed as in vivo. On the procedure: as §1, §2, §3
Garlic oil (Allium sativum—Mexico; Clearwater Soap Works, Box 1775 RR1, Clearwater, BC V0E 1N0, Canada) was formulated in mineral oil and tested using the general bioassay procedure described in EXAMPLE 2 at a dose of 0.1 mg per cm^2 of arm surface. It expressed repellence and deterrence for ˜30 min.
Some of the 10 components in FIG. 1 were bioassayed singly (see general bioassay procedure) and in various combinations, all of which were as deterrent to mosquitoes as garlic oil.
To determine the most deterrent component(s) in garlic oil, it was fractionated by HPLC into four fractions, each containing one or more of the EAD-active components (compounds 1-10 in FIG. 1 and 11-14 in TABLE 2). Each fraction was then bioassayed and shown to be similarly effective in repelling and deterring mosquitoes.
as §4

Another experiment relates to Anopheles gambiae. Put plainly: Arm-in-cage repellent/deterrent bioassay on exposed human forearm (modified WHO protocol), Anopheles gambiae. The experiment is classed as in vivo. The protocol:
as §1, §2, §3
To determine the repellence and deterrence of 8-allylsulfanyloctan-1-ol against Anopheles gambiae, a 2%, 5% or a 10% formulation of 8-allylsulfanyloctan-1-ol in mineral oil was applied in Experiments 5-7 at a dose of 1.5 mg per cm^2 to the skin of the test person, and was bioassayed according to the protocol described under EXAMPLE 2. In Experiment 8, mineral oil by itself served as a negative control and was tested at the same dose (1.5 mg per cm^2) as in Experiments 5-7. Each of Experiments 5-8 was replicated 4 times.
To be able to compare the repellence and deterrence caused N,N-diethyl-m-toluamide (DEET), and by 8-allylsulfanyloctan-1-ol, Experiment 13 tested a 2% formulation of N,N-diethyl-m-toluamide in ethanol (the best formulant for this compound) for protection from bites by Anopheles gambiae. A dose of 1.5 mg per cm^2 was applied to the skin of the test person and bioassayed according to the protocol described under EXAMPLE 2.
To compare the repellence and deterrence against Anopheles gambiae caused by 8-allyl-sulfanyloctan-1-ol as a single active ingredient and by 8-allylsulfanyloctan-1-ol in combination with vanillin as a second active ingredient, we tested a 6.7% emulsion of vanillin (Experiment 18), a 6.7-% emulsion of 8-allylsulfanyl-octan-1-ol (Experiment 19) and a 13.4% emulsion of 8-allylsulfanyloctan-1-ol plus vanillin (1:1 ratio) (Experiment 20). 8-Allylsulfanyloctan-1-ol and vanillin were formulated in Emulsion No. 1 (see EXAMPLE 9). In each of Experiments 18-20, test stimuli were applied at a dose of 1.5 mg per cm^2 to the skin of the test person, and were bioassayed according to the protocol described under EXAMPLE 2. In Experiment 21, Emulsion No. 1 served as a positive control and was tested at the same dose (1.5 mg per cm^2) as in experiments 18-20. Each of Experiments 18-21 was replicated three times.

In another experiment the test system is Culex quinquefasciatus. The experiment is described as follows: Arm-in-cage repellent/deterrent bioassay on exposed human forearm (modified WHO protocol), Culex quinquefasciatus. Type of experiment: in vivo. The note with it: 6.7% single active in Emulsion No. 1 (FIG. 9 legend: 2.0%), 1.5 mg per cm^2, Experiments 22, 23. The protocol: as §1, §2, §3
To determine the repellence and deterrence of 8-allylsulfanyloctan-1-ol against Culex quinquefasciatus, a 2% and 5% or a 10% formulation of 8-allylsulfanyloctan-1-ol in mineral oil was applied in Experiments 9-11 at a dose of 1.5 mg per cm^2 to the skin of the test person, and was bioassayed according to the protocol described under EXAMPLE 2. In Experiment 12, mineral oil by itself served as a negative control and was tested at the same dose (1.5 mg per cm^2) as in Experiments […]. Each of Experiments 9-11 was replicated 4 times.
To compare the repellence and deterrence against Culex quinquefasciatus caused by 8-allylsulfanyloctan-1-ol as a single active ingredient and by 8-allylsulfanyloctan-1-ol in combination with vanillin as a second active ingredient, we tested a 6.7% emulsion of vanillin (Experiment 22), a 6.7% emulsion of 8-allylsulfanyloctan-1-ol (Experiment 23) and a 13.4% emulsion of 8-allylsulfanyloctan-1-ol plus vanillin (1:1 ratio) (Experiment 24). 8-Allylsulfanyloctan-1-ol and vanillin were formulated in Emulsion No. 1 (see EXAMPLE 9). In each of Experiments […], test stimuli were applied at a dose of 1.5 mg per cm^2 to the skin of the test person, and were bioassayed according to the protocol described under EXAMPLE 2. In Experiment 25, Emulsion No. 1 served as a positive control and was tested at the same dose (1.5 mg per cm^2) as in Experiments 22-24. Each of Experiments 22-25 was replicated three times.

[2] abbreviates: Dosage 0.1 mg/cm^2, 0 = immediate failure.

The results in this text go back to patent publication US8889731B2, “Compounds, compositions and methods for repelling blood-feeding arthropods and deterring their landing and feeding” (Contech Enterprises Inc., priority 2007, dated 2014).

As to `C=CCSCCCCCCCCSCC=C` [Compound 19, 4,13-dithiahexadeca-1,15-diene], in the experiment with Aedes aegypti (Dosage 0.1 mg/cm^2), the pest or weed control at 0.1 mg/cm2 came to 93%. In addition, in the experiment with Aedes aegypti (Dosage 0.5 mg/cm^2), the pest or weed control at 0.5 mg/cm2 was determined as 97%. Besides, the Failure time worked out at 0 min in the experiment on Aedes aegypti (setting [2]) and 102 min in the experiment on Aedes aegypti (Dosage 0.5 mg/cm^2).
In the case of `C=CCSSC/C=C/c1ccccc1` [Compound 16, (E)-4,5-dithia-1,7-octadien-1-yl-benzene], the pest or weed control at 0.1 mg/cm2 in the experiment on Aedes aegypti (Dosage 0.1 mg/cm^2) was 89%. Besides, in the experiment on Aedes aegypti (Dosage 0.5 mg/cm^2), the pest or weed control at 0.5 mg/cm2 amounted to 92% and the Failure time was 36 min. Further, the Failure time with Aedes aegypti (setting [2]) was determined as 35 min.
Turning to `C=CCSSCC1CC=CSC1` (centres unmarked) [Compound 14, 3-(2,3-dithia-5-hexenyl)-3,4-dihydro-2(H)-thiopyran], the “electroantennographic (EAD) response of mosquito antennae” value in experiment [1] was “Antennal stimulatory”. Further, the “repellent and deterrent effect in bioassays (in words)” value in the experiment with mosquitoes is “strong repellent and deterrent effect”.
On to `COc1cc(C=O)ccc1O` [vanillin], for which the “protection from bites, average duration” value in the experiment on Anopheles gambiae (6.7% single active in Emulsion No. 1 (FIG. 8 legend: 2.0%), 1.5 mg per cm^2, Experiments 18, 19) was found to be 110 min; in the experiment with Aedes aegypti (6.7% single active in Emulsion No. 1, 1.5 mg per cm^2, Experiments 14, 15), 44 min; with Culex quinquefasciatus, 88 min.
`C=CCSCCCCCCC(C)O` (centres unmarked) [Compound 23, 8-allylsulfanyloctan-2-ol]: the Failure time in the experiment on Aedes aegypti (Dosage 0.05 mg/cm^2) is listed as 99 min.
On to `C=CCSCCCSCC=C` [Compound 17, 4,8-dithiaundeca-1,10-diene], for which the pest or weed control at 0.1 mg/cm2 with Aedes aegypti (Dosage 0.1 mg/cm^2) was 89%. Moreover, the pest or weed control at 0.5 mg/cm2 with Aedes aegypti (Dosage 0.5 mg/cm^2) is 97%. Moreover, the results for the Failure time with Aedes aegypti (setting [2]) and in the experiment with Aedes aegypti (Dosage 0.5 mg/cm^2) were 0 min and 36 min, respectively.
With `C=CCSCCCCCCCCCO` [Compound 22, 9-allylsulfanylnonan-1-ol], in the experiment on Aedes aegypti (Dosage 0.05 mg/cm^2), the Failure time was found to be 33 min.
Consider `CCN(CC)C(=O)c1cccc(C)c1` [N,N-diethyl-m-toluamide, reference compound], for which, in the experiment on Anopheles gambiae (2% DEET in ethanol vs 2% 8-allylsulfanyloctan-1-ol in mineral oil), the “duration of protection relative to 2% 8-allylsulfanyloctan-1-ol (297 min)” value was “one sixth”. In addition, the “protection from bites, average duration” value in the experiment on Anopheles gambiae (2% formulation in ethanol, 1.5 mg per cm^2, Experiment 13) turned out to be 66 min; with Aedes aegypti (6.7% formulation in ethanol, 1.5 mg per cm^2, Experiment 26), 197 min; in the experiment with Aedes aegypti (10.4% formulation in ethanol, 1.5 mg per cm^2, Experiment 27) it was 231 min.
Take `C=CCSSCC1CCC=CS1` (centres unmarked) [Compound 13, 2-(2,3-dithia-5-hexenyl)-3,4-dihydro-2(H)-thiopyran]: in experiment [1], the “electroantennographic (EAD) response of mosquito antennae” value is “Antennal stimulatory”. Besides, the “repellent and deterrent effect in bioassays (in words)” value in the experiment on mosquitoes is “strong repellent and deterrent effect”.
In the case of `C=CCOCCCCCCCCCCOCC=C` [Compound 20, 1,10-bis-allyloxy-decane], the pest or weed control at 0.1 mg/cm2 in the experiment on Aedes aegypti (Dosage 0.1 mg/cm^2) turned out to be 81%. In addition, the Failure time with Aedes aegypti (setting [2]) is 0 min. Moreover, in the experiment with Aedes aegypti (see TABLE 2, 0.1 mg/cm^2), the “had any repellence or deterrence in bioassays” value is recorded as “neither”.
For the molecule `C=CCSCCCCCCSCC=C` [Compound 18, 4,11-dithiatetradeca-1,13-diene], in the experiment with Aedes aegypti (Dosage 0.5 mg/cm^2), the pest or weed control at 0.5 mg/cm2 stood at 93% and the Failure time is given as 67 min.
For the molecule `C=CCSSc1ccccc1SSCC=C` [Compound 15, 1,2-bis-(1,2-dithia-4-pentenyl)-benzene], the pest or weed control at 0.1 mg/cm2 in the experiment on Aedes aegypti (Dosage 0.1 mg/cm^2) was found to be 92%. Also, in the experiment with Aedes aegypti (setting [2]), the Failure time was found to be 34 min.
